{
  "source": "patent US20240284907A1",
  "about": "“NOVEL DERIVATIVES OF NON-CODED AMINO ACIDS AND THEIR USE AS HERBICIDES” (FortePhest LTD., priority 2021, published 2024)",
  "data": [
    {"tested_on": "Seeds of Lettuce R. (Super-Jericho)", "assay": "Filter paper bioassay with lettuce seeds: germination and early plant development, Minimal Effective Concentration (MEC)", "format": "in vivo", "conditions": "lettuce seeds on filter paper, 0 to 1 mmol/l, visually assessed after 6 days", "from_the_text": "Materials: Seeds of Lettuce R. (Super-Jericho, non-sterilized) were obtained from Ben Shahar Moshe Ltd., 99% purity. The test compounds listed in the Table 2 below were synthetized de novo or purchased from different vendors.\nFilter Paper Bioassays with Lettuce seeds: The protocol is following Bertin et al. 2009 and Movellan et al. 2014 with specified modifications as described below.\nSeeds were placed on Whatman no. 1 filter paper (Whatman, Middlesex, U.K.) in Petri dishes (10 seeds per plate) with 2.0 ml of aqueous solution of a test material in concentration ranged from 0 (control) to 1 mmol/l were placed in a tray tilted at 45[…]. The trays were kept in dark for 48 hours and then transferred to the growth chamber with 6/18 dark/light cycle for 4 days. Each experiment was performed at least with two repeats.\nThe development of plants' radicle and shoots were visually assessed 6 days after the beginning of the test to determine Minimal Effective Concentration (MEC) of a test material. In the context of the invention, MEC is defined as the lowest concentration level of a test material that caused deviation (absence of germination or malformation of radicle or shoots) from the plant's development in the Control group.", "values": [
      {"compound": "O=C(O)c1nc(Cl)sc1Cl", "note": "[compound 596, 2,5-dichloro-1,3-thiazole-4-carboxylic acid]", "Score (activity score of Minimal Effective Concentration, MEC)": "Weak (Higher than 0.1 mM)"},
      {"compound": "O=C(O)CCN1CCN(Cc2cc(Cl)sc2Cl)CC1", "note": "[compound 5626, 3-{4-[(2,5-dichlorothiophen-3-yl)methyl]piperazin-1-yl}propanoic acid]", "Score (activity score of Minimal Effective Concentration, MEC)": "Weak (Higher than 0.1 mM)"},
      {"compound": "O=C(O)/C=C/c1cccnc1Br", "note": "[compound 6605, (2E)-3-(2-bromopyridin-3-yl)prop-2-enoic acid]", "Score (activity score of Minimal Effective Concentration, MEC)": "Strong (0.01 mM)"},
      {"compound": "N-{2-[3-(2,5-dichlorothiophen-3-yl)propoxy]phenyl}guanidine [compound 5732]", "Score (activity score of Minimal Effective Concentration, MEC)": "Moderate (0.1 mM)"},
      {"compound": "CC(=O)C1CN(CCc2cc(Cl)sc2Cl)CCC1=O", "note": "(stereo not drawn) [compound 5743, 3-acetyl-1-[2-(2,5-dichlorothiophen-3-yl)ethyl]piperidin-4-one]", "Score (activity score of Minimal Effective Concentration, MEC)": "Moderate (0.1 mM)"},
      {"compound": "(2E)-3-(2-bromo-strong-nitropyridin-4-yl)prop-2-enoic acid [compound 6608]", "Score (activity score of Minimal Effective Concentration, MEC)": "Moderate (0.1 mM)"},
      {"compound": "4-(2,5-dichlorothiophen-3-yl)butanoic acid [compound 597]", "Score (activity score of Minimal Effective Concentration, MEC)": "Moderate (0.1 mM)"},
      {"compound": "NCc1cc(Cl)sc1Cl", "note": "[compound 587, 1-(2,5-dichlorothiophen-3-yl)methanamine]", "Score (activity score of Minimal Effective Concentration, MEC)": "weak"},
      {"compound": "O=C(O)/C=C/c1cccc(Cl)n1", "note": "[compound 6603, (2E)-3-(6-chloropyridin-2-yl)prop-2-enoic acid]", "Score (activity score of Minimal Effective Concentration, MEC)": "Weak (Higher than 0.1 mM)"},
      {"compound": "N-[2-(2,5-dichlorothiophen-3-yl)ethyl]-N′-(2-hydroxypropyl)guanidine [compound 5727]", "Score (activity score of Minimal Effective Concentration, MEC)": "Moderate (0.1 mM)"},
      {"compound": "O=C(O)C(F)(F)c1nnn[nH]1", "note": "[compound 5799, difluoro(1H-tetrazol-5-yl)acetic acid]", "Score (activity score of Minimal Effective Concentration, MEC)": "Moderate (0.1 mM)"},
      {"compound": "3-(thiophen-3-yl)propan-1-amine [compound 593]", "Score (activity score of Minimal Effective Concentration, MEC)": "weak"},
      {"compound": "2-[2-(2,5-dichlorothiophen-3-yl)ethyl]-1,4,5,6-tetrahydropyrimidin-5-ol [compound 5777]", "Score (activity score of Minimal Effective Concentration, MEC)": "Weak (Higher than 0.1 mM)"},
      {"compound": "NCCCc1ccnc(Br)c1", "note": "[compound 6649, 3-(2-bromopyridin-4-yl)propan-1-amine]", "Score (activity score of Minimal Effective Concentration, MEC)": "Moderate (0.1 mM)"},
      {"compound": "CCOC(=O)Cc1csc(Cl)c1", "note": "[compound 5796, ethyl(5-chlorothiophen-3-yl)acetate]", "Score (activity score of Minimal Effective Concentration, MEC)": "Moderate (0.1 mM)"},
      {"compound": "O=C(O)C(F)c1nc(F)c(F)cc1F", "note": "(stereo not drawn) [compound 6661, 2-fluoro-2-(3,5,6-trifluoropyridin-2-yl)acetic acid]", "Score (activity score of Minimal Effective Concentration, MEC)": "Moderate (0.1 mM)"},
      {"compound": "2-(6-bromopyridin-3-yl)-2,2-difluoroacetic acid [compound 6620]", "Score (activity score of Minimal Effective Concentration, MEC)": "Strong (0.01 mM)"},
      {"compound": "2-(2-ethoxyethoxy)ethyl(2-chloro-1,3-thiazol-4-yl)acetate [compound 5800]", "Score (activity score of Minimal Effective Concentration, MEC)": "Strong (0.01 mM)"},
      {"compound": "2,2-difluoro-2-{6-[2-(trifluoromethyl)-1,3-thiazol-4-yl]pyridin-2-yl}acetic acid [compound 6658]", "Score (activity score of Minimal Effective Concentration, MEC)": "Moderate (0.1 mM)"},
      {"compound": "O=C(NCC(F)(F)C(=O)O)c1cc(Cl)sc1Cl", "note": "[compound 5605, 3-[(2,5-dichlorothiophen-3-yl)formamido]-2,2-difluoropropanoic acid]", "Score (activity score of Minimal Effective Concentration, MEC)": "Weak (Higher than 0.1 mM)"},
      {"compound": "2,2-difluoro-2-[4-(trifluoromethyl)pyrimidin-2-yl]acetic acid [compound 6652]", "Score (activity score of Minimal Effective Concentration, MEC)": "Moderate (0.1 mM)"},
      {"compound": "NCC(O)c1ccsc1", "note": "(stereo not drawn) [compound 590, 2-amino-1-(thiophen-3-yl)ethan-1-ol]", "Score (activity score of Minimal Effective Concentration, MEC)": "weak"},
      {"compound": "O=C(O)C(F)(F)c1ncccn1", "note": "[compound 6619, 2,2-difluoro-2-(pyrimidin-2-yl)acetic acid]", "Score (activity score of Minimal Effective Concentration, MEC)": "Weak (Higher than 0.1 mM)"},
      {"compound": "BrCCc1ccnc(Br)c1", "note": "[compound 690, 2-bromo-4-(2-bromoethyl)pyridine]", "Score (activity score of Minimal Effective Concentration, MEC)": "Weak (Higher than 0.1 mM)"},
      {"compound": "2-{[(2,5-dichlorothiophen-3-yl)methyl]amino}acetic acid [compound 5615]", "Score (activity score of Minimal Effective Concentration, MEC)": "Weak (Higher than 0.1 mM)"},
      {"compound": "O=C(NCC(F)(F)C(=O)O)c1ccnc(Br)c1", "note": "[compound 6618, 3-[(2-bromopyridin-4-yl)formamido]-2,2-difluoropropanoic acid]", "Score (activity score of Minimal Effective Concentration, MEC)": "Strong (0.01 mM)"},
      {"compound": "2-(2-bromopyridin-4-yl)ethan-1-amine [compound 688]", "Score (activity score of Minimal Effective Concentration, MEC)": "Weak (Higher than 0.1 mM)"},
      {"compound": "2-(2-phenoxypyridin-4-yl)ethan-1-amine [compound 6625]", "Score (activity score of Minimal Effective Concentration, MEC)": "Weak (Higher than 0.1 mM)"},
      {"compound": "2-bromo-6-phenoxypyridine [compound 6645]", "Score (activity score of Minimal Effective Concentration, MEC)": "Strong (0.01 mM)"},
      {"compound": "2-(thiophen-3-yl)ethane-1-thiol [compound 5601]", "Score (activity score of Minimal Effective Concentration, MEC)": "Moderate (0.1 mM)"},
      {"compound": "[(2,5-dichlorothiophen-3-yl)methyl]hydrazine [compound 5610]", "Score (activity score of Minimal Effective Concentration, MEC)": "Weak (Higher than 0.1 mM)"},
      {"compound": "O=C(O)C(F)(F)c1sc(Cl)nc1Cl", "note": "[compound 5722, (24-dichloro-1,3-thiazol-5-yl)(difluoro)acetic acid]", "Score (activity score of Minimal Effective Concentration, MEC)": "Weak (Higher than 0.1 mM)"},
      {"compound": "O=C(O)C(F)(F)c1cscc1C(F)(F)F", "note": "[compound 5764, difluoro[4-(trifluoromethyl)thiophen-3-yl]acetic acid]", "Score (activity score of Minimal Effective Concentration, MEC)": "Strong (0.01 mM)"},
      {"compound": "O=C(O)Cc1ccc(Oc2ccncc2)cc1", "note": "[compound 6615, 2-[4-(pyridin-4-yloxy)phenyl]acetic acid]", "Score (activity score of Minimal Effective Concentration, MEC)": "Weak (Higher than 0.1 mM)"},
      {"compound": "methyl 2-(2-bromopyridin-4-yl)-2,2-difluoroacetate [compound 6629]", "Score (activity score of Minimal Effective Concentration, MEC)": "Moderate (0.1 mM)"},
      {"compound": "propyl[2-(1H-1,2,4-triazol-3-yl)ethyl]amine [compound 5660]", "Score (activity score of Minimal Effective Concentration, MEC)": "Weak (Higher than 0.1 mM)"},
      {"compound": "N=C(N)NCc1cccc(Br)n1", "note": "[compound 6636, N-[(6-bromopyridin-2-yl)methyl]guanidine]", "Score (activity score of Minimal Effective Concentration, MEC)": "Moderate (0.1 mM)"},
      {"compound": "2-[2-(4-chloro-2-fluorophenyl)-1,3-thiazol-4-yl]-2,2-difluoroacetic acid [compound 5734]", "Score (activity score of Minimal Effective Concentration, MEC)": "Moderate (0.1 mM)"},
      {"compound": "Cl.NC(Cc1n[nH]c2ccccc12)C(=O)O", "note": "(stereo not drawn) [compound 599, 2-amino-3-(1H-indazol-3-yl)propanoic acid hydrochloride[HCl]]", "Score (activity score of Minimal Effective Concentration, MEC)": "Moderate (0.1 mM)"},
      {"compound": "O=C(Cc1ccccc1)NCCc1cc(Cl)sc1Cl", "note": "[compound 5708, N-[2-(2,5-dichlorothiophen-3-yl)ethyl]-2-phenylacetamide]", "Score (activity score of Minimal Effective Concentration, MEC)": "Moderate (0.1 mM)"},
      {"compound": "2-bromopyridine-4-carboxamide [compound 6600]", "Score (activity score of Minimal Effective Concentration, MEC)": "Weak (Higher than 0.1 mM)"},
      {"compound": "naphthalene-2-carboxylic acid [compound 691]", "Score (activity score of Minimal Effective Concentration, MEC)": "Weak (Higher than 0.1 mM)"},
      {"compound": "O=C(O)C(=O)/C=C/c1cc(Cl)sc1Cl", "note": "[compound 5620, (3E)-4-(2,5-dichlorothiophen-3-yl)-2-oxobut-3-enoic acid]", "Score (activity score of Minimal Effective Concentration, MEC)": "Weak (Higher than 0.1 mM)"},
      {"compound": "2-amino-2-(2,5-dichlorothiophen-3-yl)acetic acid [compound 5659]", "Score (activity score of Minimal Effective Concentration, MEC)": "Weak (Higher than 0.1 mM)"},
      {"compound": "Brc1cc(CNCc2ccnc(Br)c2)ccn1", "note": "[compound 686, bis[(2-bromopyridin-4-yl)methyl]amine]", "Score (activity score of Minimal Effective Concentration, MEC)": "Weak (Higher than 0.1 mM)"},
      {"compound": "2-(3-chloro-1,2-thiazol-4-yl)-2,2-difluoroacetic acid [compound 5773]", "Score (activity score of Minimal Effective Concentration, MEC)": "Moderate (0.1 mM)"},
      {"compound": "(2,6-dibromopyridin-4-yl)-2,2-difluoroacetic acid [compound 6632]", "Score (activity score of Minimal Effective Concentration, MEC)": "Weak (Higher than 0.1 mM)"},
      {"compound": "Clc1cc(CCNCc2ccccc2)c(Cl)s1", "note": "[compound 5694, benzyl[2-(2,5-dichlorothiophen-3-yl)ethyl]amine]", "Score (activity score of Minimal Effective Concentration, MEC)": "Moderate (0.1 mM)"},
      {"compound": "O=C(O)/C=C/c1cccnc1Cl", "note": "[compound 6604, (2E)-3-(2-chloropyridin-3-yl)prop-2-enoic acid]", "Score (activity score of Minimal Effective Concentration, MEC)": "Moderate (0.1 mM)"},
      {"compound": "O=C(O)C(F)(F)c1cccc(-c2ccc(C(F)(F)F)cc2F)n1", "note": "[compound 6659, 2,2-difluoro-2-{6-[2-fluoro-4-(trifluoromethyl)phenyl]pyridin-2-yl}acetic acid]", "Score (activity score of Minimal Effective Concentration, MEC)": "Moderate (0.1 mM)"},
      {"compound": "2-{2-[3-fluoro-5-(trifluoromethyl)pyridin-2-yl]-1,3-thiazol-4-yl}acetic acid [compound 5770]", "Score (activity score of Minimal Effective Concentration, MEC)": "Weak (Higher than 0.1 mM)"}
    ]}
  ]
}
